Results taken from US6359009B1, “Substituted anilide insecticidal agents” (BASF Aktiengesellschaft, priority 1998, dated 2002).
Counter-ions that a name gives are not always drawn.

Key:
[1] = test system: Diabrotica undecimrunctata howardi, 3rd instar southern corn rootworm; experiment: Evaluation against 3rd instar southern corn rootworm, treated talc/soil jar test, mortality after 5 days; assay type: in vivo, Diabrotica undecimpunctata howardi; conditions: mortality rating 0-9 after 5 days in soil
Method: (§1) Test solutions are prepared by dissolving the test compound in a 35% acetone in water mixture to give a concentration of 10,000 ppm. Subsequent dilutions are made with water as needed.
Diabrotica undecimrunctata howardi, 3rd instar southern corn rootworm
(§2) One cc of fine talc is placed in a 30 mL wide-mouth screw-top glass jar. One mL of the appropriate acetone test solution is pipetted onto the talc so as to provide 1.25 mg, 0.25 mg or 0.025 mg of active ingredient per jar. The jars are set under a gentle air flow until the acetone is evaporated. The dried talc is loosened, 1 cc of millet seed is added to serve as food for the insects and 25 mL of moist soil is added to each jar. The jar is capped and the contents thoroughly mixed mechanically. Following this, ten 3rd instar rootworms are added to each jar and the jars are loosely capped to allow air exchange for the larvae. The treatments are held for 5 days when mortality counts are made. Missing larvae are presumed dead, since they decompose rapidly and can not be found.

[2] = test system: Diabrotica virgifera virgifera Leconte, 3rd instar western corn rootworm; experiment: Evaluation against 3rd instar western corn rootworm, treated talc/soil jar test, mortality after 5 days; assay type: in vivo; conditions: mortality rating 0-9 after 5 days in soil
Method: as §1
Diabrotica virgifera virgifera Leconte, 3rd instar western corn rootworm
as §2

SMILES	Southern Corn Rootworm (1 ppm) rating [1]	Southern Corn Rootworm (10 ppm) rating [1]	Southern Corn Rootworm (50 ppm) rating [1]	Western Corn Rootworm (1 ppm) rating [2]	Western Corn Rootworm (10 ppm) rating [2]	Western Corn Rootworm (50 ppm) rating [2]
CC(C)C(=O)C(C)(C)C(=O)Nc1ccc(C(F)(F)F)cc1 [Compound 1, α,α,α-Trifluoro-2,2,4-trimethyl-3-oxo-p-valerotoluidide]	9.0	9.0	9.0	–	–	–
CC(C)C(=O)C(C)(C)C(=O)Nc1ccc(Cl)cc1 [Compound 37, 4′-Chloro-2,2,4-trimethyl-3-oxovaleranilide]	0.0	9.0	9.0	–	–	–
CCCCCCOC(C(C)C)C(C)(C)C(=O)Nc1ccc(C(F)(F)F)cc1 (stereo not drawn) [Compound 27, α,α,α-Trifluoro-3-(hexyloxy)-2,2,4-trimethyl-p-valerotoluidide]	–	–	–	0.0	0.0	9.0
CC(C)(C)C(=O)C(C)(C)C(=O)Nc1ccc(C(F)(F)F)cc1 [Compound 21, α,α,α-Trifluoro-2,2,4,4-tetramethyl-3-oxo-p-valerotoluidide]	–	–	–	0.0	9.0	9.0
CC(C)/C(=N\O)C(C)(C)C(=O)Nc1ccc(C(F)(F)F)cc1 [Compound 10, α,α,α-Trifluoro-2,2,4-trimethyl-3-oxo-p-valerotoluidide, 3-oxime]	–	–	7.0	–	–	–
CC(C)C(=O)C(C)(C)C(=O)N(C)c1ccc(C(F)(F)F)cc1 [Compound 36, α,α,α-Trifluoro-N,2,2,4-tetramethyl-3-oxo-p-valerotoluidide]	–	–	–	2.0	9.0	9.0
CCOCN(C(=O)C(C)(C)C(=O)C(C)C)c1ccc(C(F)(F)F)cc1 [Compound 15, N-(Ethoxymethyl)-α,α,α-trifluoro-2,2,4-trimethyl-3-oxo-p-valerotoluidide]	–	–	–	8.0	9.0	9.0
CC(C)C(OC(=O)CCl)C(C)(C)C(=O)Nc1ccc(C(F)(F)F)cc1 (stereo not drawn) [Compound 20, 3-Hydroxy-α,α,α-trifluoro-2,2,4-trimethyl-p-valerotoluidide, chloroacetate (ester)]	–	–	–	0.0	5.0	9.0
CC(C)C(OC=O)C(C)(C)C(=O)Nc1ccc(C(F)(F)F)cc1 (stereo not drawn) [Compound 33, α,α,α-Trifluoro-3-hydroxy-2,2,4-trimethyl-p-valerotoiuidide, formate (ester)]	–	–	–	0.0	5.0	9.0
CC(C)C(=O)C(C)(Cl)C(=O)Nc1ccc(C(F)(F)F)cc1 (stereo not shown) [Compound 31]	–	–	–	0.0	0.0	4.0
CC(C)CC(C)C(=O)Nc1ccc(C(F)(F)F)c(OC(F)F)c1 (stereo not drawn) [Compound 32, 3-(Difluoromethoxy)-α,α,α-trifluoro-2,4-dimethyl-p-valerotoiuidide]	–	–	–	0.0	4.0	4.0
CC(C)OC(C)(C)C(=O)Nc1ccc(C(F)(F)F)cc1 [Compound 30, α,α,α-Trifluoro-2-isopropoxy-2-methyl-p-propionotoluidide]	–	–	–	0.0	9.0	9.0
CCOC(C(C)C)C(C)(C)C(=O)Nc1ccc(C(F)(F)F)cc1 (stereo not drawn) [Compound 24, 3-Ethoxy-α,α,α-trifluoro-2,2,4-trimethyl-p-valerotoluidide]	–	–	–	0.0	9.0	9.0
C=CCOC(C(C)C)C(C)(C)C(=O)Nc1ccc(C(F)(F)F)cc1 (stereo not drawn) [Compound 22, 3-(Allyloxy)-α,α,α-trifluoro-2,2,4-trimethyl-p-valerotoluidide]	–	–	–	0.0	9.0	9.0
C#CCOC(C(C)C)C(C)(C)C(=O)Nc1ccc(C(F)(F)F)cc1 (stereo not drawn) [Compound 19, α,α,α-Trifluoro-2,2,4-trimethyl-3-(2-propynyloxy)-p-valerotoluidide]	–	–	–	0.0	9.0	9.0
CC(C)C(OC1CCCC1)C(C)(C)C(=O)Nc1ccc(C(F)(F)F)cc1 (stereo not drawn) [Compound 26, 3-(Cyclopentyloxy)-α,α,α-trifluoro-2,2,4-trimethyl-p-valerotoluidide]	–	–	–	0.0	0.0	8.0
COC(C(C)C)C(C)(C)C(=O)Nc1ccc(Cl)cc1 (stereo not shown) [Compound 28, 4′-Chloro-3-methoxy-2,2,4-trimethylvaleranilide]	–	–	–	0.0	5.0	9.0
CC(C)OC(C(C)C)C(C)(C)C(=O)Nc1ccc(C(F)(F)F)cc1 (stereo not drawn) [Compound 23, α,α,α-Trifluoro-3-(isopropoxy)-2,2,4-trimethyl-p-valerotoluidide]	–	–	–	0.0	9.0	9.0
CC(C)C(=O)C(C)C(=O)Nc1ccc(C(F)(F)F)cc1 (stereo not drawn) [Compound 29, α,α,α-Trifluoro-2,4-dimethyl-3-oxo-p-valerotoluidide]	–	–	–	0.0	0.0	8.5
CCOCOC(C(C)C)C(C)(C)C(=O)Nc1ccc(C(F)(F)F)cc1 (stereo not drawn) [Compound 17, 3-(Ethoxymethoxy)-α,α,α-trifluoro-2,2,4-trimethyl-p-valerotoluidide]	–	–	–	1.0	9.0	9.0
CC(C)C(=O)C1(C(=O)Nc2ccc(C(F)(F)F)cc2)CC1 [Compound 25, α,α,α-Trifluoro-1-isobutyrylcyclopropanecarboxy-p-toluidide]	–	–	–	0.0	0.0	7.0
COC(C(C)C)C(C)(C)C(=O)Nc1ccc(C(F)(F)F)cc1 (stereo not drawn) [Compound 16, α,α,α-Trifluoro-3-methoxy-2,2,4-trimethyl-p-valerotoluidide]	–	–	–	0.0	9.0	9.0
CC(C)(C)OC(C)(C)C(=O)Nc1ccc(C(F)(F)F)cc1 [Compound 34, 2-tert-Butoxy-α,α,α-trifluoro-2-methyl-p-propionotoluidide]	–	–	–	2.0	9.0	9.0
CC(C)C(OS(C)(=O)=O)C(C)(C)C(=O)Nc1ccc(C(F)(F)F)cc1 (stereo not drawn) [Compound 18, α,α,α-Trifluoro-3-hydroxy-2,2,4-trimethyl-p-valerotoluidide, methanesulfonate (ester)]	–	–	–	0.0	3.0	9.0
CCOC(C)(C)C(=O)Nc1ccc(C(F)(F)F)cc1 [Compound 35, 2-Ethoxy-α,α,α-trifluoro-2-methyl-p-propionotoluidide]	–	–	–	0.0	3.0	9.0
